Experimental data: patent US9862730B2, “Imidazothiadiazole derivatives as protease activated receptor 4 (PAR4) inhibitors for treating platelet aggregation” (BRISTOL-MYERS SQUIBB COMPANY, priority 2012, dated 2018)

Biological target: PAR4 (Homo sapiens (Human), UniProt Q96RI0)
Test: FLIPR assay in PAR4-expressing HEK293 cells (PAR4 antagonist activity, calcium mobilization)
Type: cell-based
Settings: FLIPR assay as described in Example A
Description: The FLIPR assay is an exemplary in vitro assay for measuring the activity of the PAR4 antagonists of the present invention. In this assay, intracellular calcium mobilization is induced in PAR4 expressing cells by a PAR4 agonist and calcium mobilization is monitored. See, e.g., Example A.
HEK293 cells stably expressing PAR4 were generated by a standard method of transfection of human […] cDNA expression vector or by RAGE technology from Athersys Inc. (Cleveland, Ohio) and selected based on PAR4 protein expression of mRNA expression. […] These cells express endogenous PAR1 and can elicit calcium signal upon stimulation with PAR1 agonist peptide.
Counter screens for agonist activity and PAR1 antagonist activity were also performed. Briefly, HEK293 EBNA PAR4 clone 20664.1J cells were plated 24 hrs. prior to experiment in 384 well, Poly-D-Lysine coated, black, clear bottom plates (Greiner Bio-One, Monroe, N.C.). Cells were plated at 20,000 cells/well in 20 μl growth medium and incubated at 37° C. with 5% CO2 overnight. At time of assay, media was replaced with 40 μl 1× Hank's Buffered Saline Solution (HBSS) (with 10 mM HEPES) and 20 μl test compound also diluted in 1×HBSS buffer was added at various concentrations and 0.67% DMSO final concentration on the FDSS for agonist measurement. The cells were then incubated for 30 minutes at room temperature followed by addition of 20 μl of agonist peptide for antagonist measurement on the FDSS.
As indicated above, the FLIPR assay, an in vitro assay, measures the PAR4 antagonist activity of compounds tested as described in Example A.

PAR4, sequence (Q96RI0 18-385): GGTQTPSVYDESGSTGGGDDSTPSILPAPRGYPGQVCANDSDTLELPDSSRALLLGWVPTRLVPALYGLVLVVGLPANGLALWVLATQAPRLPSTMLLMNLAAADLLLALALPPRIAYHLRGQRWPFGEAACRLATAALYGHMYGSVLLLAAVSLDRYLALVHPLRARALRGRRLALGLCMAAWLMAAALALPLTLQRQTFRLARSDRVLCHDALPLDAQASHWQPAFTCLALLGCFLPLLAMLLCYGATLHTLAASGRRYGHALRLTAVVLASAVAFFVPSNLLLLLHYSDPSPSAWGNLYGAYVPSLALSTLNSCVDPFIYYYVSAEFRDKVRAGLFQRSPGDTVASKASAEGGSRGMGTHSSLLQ

IC50	Compound
2.98 nM	COc1cc(OCc2cccc(OCc3ccc(F)cc3Cl)c2)c2cc(-c3cn4nc(OC)sc4n3)oc2c1 [Example 369]
2.3 nM	COc1cc(OCc2cccc(OCc3cccc(NC(=O)c4ccccc4)c3)c2)c2cc(-c3cn4nc(OC)sc4n3)oc2c1 [Example 397]
1.67 nM	COc1cc(OCc2cccc(OCc3cc(C)cc(C)c3)c2)c2cc(-c3cn4nc(OC)sc4n3)oc2c1 [Example 382]
94.1 nM	Clc1cc(Cl)c2cc(-c3cn4nc(Br)sc4n3)oc2c1 [Example 288]
139 nM	COc1cc(Br)cc2cc(-c3cn4nc(SC)sc4n3)oc12 [Example 284]
9.97 nM	COc1cc(OCc2cccc(OCc3ccccc3OC(F)(F)F)c2)c2cc(-c3cn4nc(OC)sc4n3)oc2c1 [Example 322]
6.73 nM	COc1cc(OCc2cccc(OCc3cc(C(F)(F)F)ccc3F)c2)c2cc(-c3cn4nc(OC)sc4n3)oc2c1 [Example 321]
21.8 nM	COCCOc1cccc2oc(-c3cn4nc(SC)sc4n3)cc12 [Example 268]
3.43 nM	COc1cc(OC(C)C)c2cc(-c3cn4nc(OC)sc4n3)oc2c1 [Example 300]
28 nM	COc1cc(OCc2ccccc2)c2cc(-c3cn4nc(C(C)(F)F)sc4n3)oc2c1 [Example 265]
5.17 nM	COc1nn2cc(-c3cc4c(OCc5cccc(OCc6ccccc6)c5)cc(Cl)cc4o3)nc2s1 [Example 414, 6-(4-((3-(Benzyloxy)benzyl)oxy)-6-chlorobenzofuran-2-yl)-2-methoxyimidazo[2,1-b][1,3,4]thiadiazole]
0.72 nM	COc1cc(OCc2cccc(OCc3cccc(F)c3F)c2)c2cc(-c3cn4nc(OC)sc4n3)oc2c1 [Example 314]
106 nM	Cc1cc(C)c2cc(-c3cn4nc(Br)sc4n3)oc2c1 [Example 296]
43.1 nM	COc1nn2cc(-c3cc4c(OCc5ccc(F)cc5)cccc4o3)nc2s1 [Example 266]
74.5 nM	CSc1nn2cc(-c3cc4cc(Cl)c(C)cc4o3)nc2s1 [Example 269]
187 nM	COc1cc(OCc2cccc(OCc3cccnc3C)c2)c2cc(-c3cn4nc(OC)sc4n3)oc2c1 [Example 308]
1100 nM	Cc1cc(C(F)(F)F)c2cc(-c3cn4nc(Br)sc4n3)oc2n1 [Example 306]
537 nM	CSc1nn2cc(-c3nc4c(OC[C@H]5CCCN5C(=O)[C@H](NC(=O)c5ccccc5)c5ccccc5)cccc4o3)nc2s1 [Example 335, N—((R)-2-((R)-2-(((2-(2-(Methylthio)imidazo[2,1-b][1,3,4]thiadiazol-6-yl)benzo[d]oxazol-4-yl)oxy)methyl)pyrrolidin-1-yl)-2-oxo-1-phenylethyl)benzamide]
3.03 nM	COc1cc(OCc2cccc(OCc3ccc(I)cc3)c2)c2cc(-c3cn4nc(OC)sc4n3)oc2c1 [Example 391]
2710 nM	COc1cc(Br)c2oc(-c3cn4nc(SC)sc4n3)cc2c1 [Example 283]
4.51 nM	COc1cc(OCc2cccc(OCc3cc(C(F)(F)F)ccc3C)c2)c2cc(-c3cn4nc(OC)sc4n3)oc2c1 [Example 396]
5.02 nM	COc1nn2cc(-c3cc4c(OCc5cccc(OCc6ccccc6)c5)cc(C#N)cc4o3)nc2s1 [Example 417]
180 nM	CC(F)(F)c1nn2cc(-c3cc4c(F)cccc4o3)nc2s1 [Example 273]
2.77 nM	COc1cc(OCc2cccc(OCc3ccc(C)c(C)c3)c2)c2cc(-c3cn4nc(OC)sc4n3)oc2c1 [Example 381]
4.09 nM	COc1cc(OCc2cccc(OCc3cc(Br)ccc3OC)c2)c2cc(-c3cn4nc(OC)sc4n3)oc2c1 [Example 367]
2.13 nM	COc1cc(OCc2cccc(OCc3ccc(C)cc3C)c2)c2cc(-c3cn4nc(OC)sc4n3)oc2c1 [Example 312]
3.61 nM	COc1cc(OCc2ccc(C)c(OCc3ccccc3)c2)c2cc(-c3cn4nc(OC)sc4n3)oc2c1 [Example 352]
9.37 nM	C#Cc1cc(OCc2cccc(OCc3ccccc3)c2)c2cc(-c3cn4nc(OC)sc4n3)oc2c1 [Example 418]

More lines, now with the values behind:

Compound	IC50
CCc1nn2cc(-c3nc4ccc(OCc5cccc(Cl)c5)cc4o3)nc2s1 [Example 82]	66 nM
CC(F)(F)c1nn2cc(-c3cc4ccc(F)cc4o3)nc2s1 [Example 231]	22.3 nM
CSc1nn2cc(-c3nc4cc(C(C)(C)C)ccc4o3)nc2s1 [Example 132]	87.2 nM
COc1nn2cc(-c3nc4cc(F)c(F)cc4o3)nc2s1 [Example 138]	470 nM
COc1nn2cc(-c3nc4cc(OC(F)(F)F)ccc4o3)nc2s1 [Example 140]	68.9 nM
CC(F)(F)c1nn2cc(-c3nc4c([N+](=O)[O-])cccc4o3)nc2s1 [Example 123, 2-(2-(1,1-Difluoroethyl)imidazo[2,1-b][1,3,4]thiadiazol-6-yl)-4-nitrobenzo[d]oxazole]	1120 nM
CCc1nn2cc(-c3nc4ccc(OCc5ccc(Cl)cc5)cc4o3)nc2s1 [Example 83]	1010 nM
CCCOc1cccc2cc(-c3cn4nc(CC)sc4n3)oc12 [Example 56]	601 nM
COc1ccc2nc(-c3cn4nc(SC)sc4n3)oc2c1 [Example 116, 6-Methoxy-2-(2-(methylthio)imidazo[2,1-b][1,3,4]thiadiazol-6-yl)benzo[d]oxazole]	6.63 nM
CSc1nn2cc(-c3nc4ccc(OCc5ccc(Cl)cc5)cc4o3)nc2s1 [Example 169]	70.5 nM
CSc1nn2cc(-c3nc4c(N)cccc4o3)nc2s1 [Example 120, 2-(2-(Methylthio)imidazo[2,1-b][1,3,4]thiadiazol-6-yl)benzo[d]oxazol-4-amine]	48.9 nM
COc1nn2cc(-c3cc4cc([N+](=O)[O-])ccc4o3)nc2s1 [Example 100]	71.4 nM
COc1nn2cc(-c3cc4cc(Cl)c(OC)cc4o3)nc2s1 [Example 201, 2-Methoxy-6-(5-chloro-6-methoxybenzofuran-2-yl)imidazo[2,1-b][1,3,4]thiadiazole]	4.38 nM
CSc1nn2cc(-c3nc4cc(C)ccc4o3)nc2s1 [Example 113]	15.2 nM
CCc1nn2cc(-c3cc4cccc(OCCCC#N)c4o3)nc2s1 [Example 66]	2620 nM
COc1cc2oc(-c3cn4nc(SC)sc4n3)cc2cc1Br [Example 261]	4.53 nM
CCc1nn2cc(-c3nc4ccc(OCc5ccccc5)cc4o3)nc2s1 [Example 67]	103 nM
COc1cc(O)c2cc(-c3cn4nc(OC)sc4n3)oc2c1 [Example 204, 6-Methoxy-2-(2-methoxyimidazo[2,1-b][1,3,4]thiadiazol-6-yl)benzofuran-4-ol]	170 nM
Cc1ccc2nc(-c3cn4nc(C(C)(F)F)sc4n3)sc2c1 [Example 199]	2680 nM
COc1nn2cc(-c3cc4cccc(F)c4o3)nc2s1 [Example 263]	20.7 nM

Compound	IC50
COc1nn2cc(-c3nc4c(Cl)cccc4s3)nc2s1 [Example 196]	791 nM
CSc1nn2cc(-c3nc4ccc(OCc5ccc(C(F)(F)F)cc5)cc4o3)nc2s1 [Example 153]	345 nM
CSc1nn2cc(-c3nc4c(OCc5ccc(Cl)cc5)cccc4o3)nc2s1 [Example 157]	1650 nM
CSc1nn2cc(-c3nc4ccc(OCCN5CCCC5)cc4o3)nc2s1 [Example 114, 2-(2-(Methylthio)imidazo[2,1-b][1,3,4]thiadiazol-6-yl)-6-(2-(pyrrolidin-1-yl)ethoxy)benzo[d]oxazole]	206 nM
CSc1nn2cc(-c3nc4cccc(F)c4o3)nc2s1 [Example 143]	48.8 nM
CSc1nn2cc(-c3nc4ccc(OCc5ccncc5)cc4o3)nc2s1 [Example 146]	911 nM
CSc1nn2cc(-c3nc4ccc(OC(F)(F)F)cc4s3)nc2s1 [Example 180, 2-(2-(Methylthio)imidazo[2,1-b][1,3,4]thiadiazol-6-yl)-6-(trifluoromethoxy)benzo[d]thiazole]	189 nM
COc1nn2cc(-c3nc4ccc(F)cc4s3)nc2s1 [Example 184, 6-Fluoro-2-(2-methoxyimidazo[2,1-b][1,3,4]thiadiazol-6-yl)benzo[d]thiazole]	5.5 nM
CSc1nn2cc(-c3nc4cc(F)c(F)cc4o3)nc2s1 [Example 137]	23.9 nM
CSc1nn2cc(-c3nc4c(OCC5CC5)cccc4o3)nc2s1 [Example 175]	41.3 nM
CC(F)(F)c1nn2cc(-c3cc4cccc(OC(F)(F)F)c4o3)nc2s1 [Example 240]	671 nM
COc1nn2cc(-c3nc4cc(Cl)ccc4o3)nc2s1 [Example 130]	41.3 nM
CCOc1cc(OC)cc2oc(-c3cn4nc(OC)sc4n3)cc12 [Example 206]	2.01 nM
COc1nn2cc(-c3nc4cc(C)ccc4o3)nc2s1 [Example 127]	27.9 nM
CSc1nn2cc(-c3nc4ccc(F)cc4s3)nc2s1 [Example 191]	30.7 nM
COc1cccc2sc(-c3cn4nc(SC)sc4n3)nc12 [Example 6, 4-Methoxy-2-(2-(methylthio)imidazo[2,1-b][1,3,4]thiadiazol-6-yl)benzo[d]thiazole]	618 nM
CCc1nn2cc(-c3nc4ccc(OC(C)C)cc4o3)nc2s1 [Example 87]	450 nM
CSc1nn2cc(-c3nc4c(OCc5cc(F)cc(F)c5)cccc4o3)nc2s1 [Example 171]	48.1 nM
CCc1nn2cc(-c3nc4ccc(OC5CCC5)cc4o3)nc2s1 [Example 75]	294 nM
